The target of assay [1] is T1, Histamine H3 receptor (Homo sapiens, UniProt Q9Y5N1). Nature of the assay: Displacement of [3H]Nalpha-methylhistamine from recombinant human histamine H3 receptor expressed in HEK293 cells incubated for 90 mins by competition binding assay. The class given is cell-based. (Loss of bound radioactivity is the signal in a displacement assay; it reports binding, not function.)

For assay [2], the target named is T2, Amyloid-beta precursor protein (Homo sapiens, UniProt P05067). Nature of the assay: Binding affinity to CM-5 sensor chip immobilized beta-amyloid monomer (1 to 42) (unknown origin) at 200 uM by SPR analysis. On the technique in general: In SPR one partner is held on a chip, and binding of the other changes the refractive index at the surface.
In assay [3] the target is T2, Amyloid-beta precursor protein. Nature of the assay: Binding affinity to CM-5 sensor chip immobilized beta-amyloid monomer (1 to 42) (unknown origin) assessed as dissociation constant by SPR analysis.
For assay [4], the target named is T1, Histamine H3 receptor. Nature of the assay: Antagonist activity at histamine H3 receptor (unknown origin).

Calls of active or inactive are those of the source. The rule behind the calls is not given here.

T2 sequence (P05067 whole entry): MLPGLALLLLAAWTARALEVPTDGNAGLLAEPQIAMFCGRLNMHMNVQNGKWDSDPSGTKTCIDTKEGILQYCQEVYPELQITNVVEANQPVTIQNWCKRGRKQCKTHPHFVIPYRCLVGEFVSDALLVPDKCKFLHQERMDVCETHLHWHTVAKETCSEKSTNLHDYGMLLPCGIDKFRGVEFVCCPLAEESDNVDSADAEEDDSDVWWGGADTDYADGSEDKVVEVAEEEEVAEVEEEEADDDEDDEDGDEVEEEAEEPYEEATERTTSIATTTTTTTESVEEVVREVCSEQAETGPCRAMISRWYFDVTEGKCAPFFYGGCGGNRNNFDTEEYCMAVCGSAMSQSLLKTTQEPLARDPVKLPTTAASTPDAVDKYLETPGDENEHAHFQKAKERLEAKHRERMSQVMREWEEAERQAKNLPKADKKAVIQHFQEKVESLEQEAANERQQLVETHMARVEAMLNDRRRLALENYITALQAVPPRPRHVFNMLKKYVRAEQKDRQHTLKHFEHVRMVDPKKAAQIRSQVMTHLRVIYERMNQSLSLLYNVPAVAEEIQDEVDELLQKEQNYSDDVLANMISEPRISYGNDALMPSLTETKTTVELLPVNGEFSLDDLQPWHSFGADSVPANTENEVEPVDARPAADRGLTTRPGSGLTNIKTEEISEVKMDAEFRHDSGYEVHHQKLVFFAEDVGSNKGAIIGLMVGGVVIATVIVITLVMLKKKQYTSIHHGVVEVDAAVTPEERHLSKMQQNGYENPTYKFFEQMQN
T1 sequence (Q9Y5N1 whole entry): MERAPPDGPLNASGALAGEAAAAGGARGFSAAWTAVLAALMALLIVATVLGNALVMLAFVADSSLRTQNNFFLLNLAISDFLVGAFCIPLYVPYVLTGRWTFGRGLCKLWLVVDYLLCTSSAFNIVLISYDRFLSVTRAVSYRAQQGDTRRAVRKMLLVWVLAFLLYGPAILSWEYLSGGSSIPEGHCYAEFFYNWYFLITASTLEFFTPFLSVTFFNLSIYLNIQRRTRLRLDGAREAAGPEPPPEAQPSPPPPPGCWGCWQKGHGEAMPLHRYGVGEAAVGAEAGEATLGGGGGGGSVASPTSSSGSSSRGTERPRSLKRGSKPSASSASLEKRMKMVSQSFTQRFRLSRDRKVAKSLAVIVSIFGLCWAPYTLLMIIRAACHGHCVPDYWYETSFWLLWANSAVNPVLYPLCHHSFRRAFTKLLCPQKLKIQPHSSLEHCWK

Usually Ki stands for the equilibrium dissociation constant of an inhibitor or competing ligand from its target. For the compound `c1ccc(C[C@H]2CN[C@@H](Cc3ccc(OCCCN4CCCCC4)cc3)CN2)cc1`, the inhibition constant (Ki) at Histamine H3 receptor [1] is 0.0011 µM. In addition, in assay [2], the result was inactive.
In the case of `O=C1CN(C(=O)c2ccc(OCCCN3CCCCC3)cc2)CCN1`, the Ki at Histamine H3 receptor [1] came out at 0.0028 µM.
Consider `O=C1CNC(=O)/C(=C/c2ccc(OCCCN3CCCCC3)cc2)N1`, for which, on Histamine H3 receptor [1], the Ki worked out at 0.0223 µM. In addition, in assay [2], the result was inactive.
In the case of `C[C@@H]1NC(=O)[C@H](Cc2ccc(OCCCN3CCCCC3)cc2)NC1=O`, the Ki at Histamine H3 receptor [1] amounted to 0.159 µM. For the same compound, in assay [2], the outcome was inactive.
On to `CC(=O)N1CC(=O)N/C(=C\c2ccc(OCCCN3CCCCC3)cc2)C1=O`, for which, on Histamine H3 receptor [1], the Ki turned out to be 0.0038 µM. In addition, in assay [2], the outcome was inactive.
On the same counts, the results for `O=C1CNC(=O)[C@H](Cc2ccc(OCCCN3CCCCC3)cc2)N1` are 0.074 µM and “inactive”.
For `CC(C)[C@@H]1NC(=O)[C@H](Cc2ccc(OCCCN3CCCCC3)cc2)NC1=O`, at Histamine H3 receptor [1], the Ki came out at 0.219 µM. In addition, in assay [2], the outcome was inactive.
As to `O=C1CNC(=O)[C@@H](Cc2ccc(OCCCN3CCCCC3)cc2)N1`, the Ki at Histamine H3 receptor [1] was 0.158 µM. Further, the outcome in assay [2] was inactive.
What is called Kd is the concentration at which binding is half-saturated. Turning to `O=C1CN(Cc2ccc(OCCCN3CCCCC3)cc2)C(=O)CN1`, at Histamine H3 receptor [1], the Ki is 0.0049 µM. Besides, in assay [3], the Kd is 1550 µM.
Regarding `c1cc(OCCCN2CCCCC2)ccc1C[C@H]1CNCCN1`, the Ki on Histamine H3 receptor [1] stood at 0.002 µM. In addition, in assay [2], the outcome was inactive.
Take `O=C1N[C@@H](Cc2ccccc2)C(=O)N/C1=C\c1ccc(OCCCN2CCCCC2)cc1` (stereo in doubt): the inhibition constant Ki at Histamine H3 receptor [1] is 0.002 µM. Also, the outcome in assay [2] was inactive.
For the compound `CC(=O)N1C(=O)/C(=C/c2ccc(OCCCN3CCCCC3)cc2)NC(=O)[C@@H]1Cc1ccccc1`, at Histamine H3 receptor [1], the inhibitory constant (Ki) is 0.0044 µM. For the same compound, the outcome in assay [2] was inactive.
For the compound `CN1C[C@H]2CCN(c3ccc(-c4ccc(-n5ncccc5=O)cc4)cc3)[C@H]2C1`, affinity at Histamine H3 receptor [4] was put at a Ki of 0.002 µM.
For `O=C1N[C@@H](Cc2ccc(OCCCN3CCCCC3)cc2)C(=O)N[C@H]1Cc1ccccc1`, the Ki at Histamine H3 receptor [1] turned out to be 0.039 µM. In addition, the outcome in assay [2] was inactive. The Kd in assay [3] stood at 12000 µM.
Regarding `O=C1CN(Cc2ccc(OCCCN3CCCCC3)cc2)CCN1Cc1ccccc1`, the Ki at Histamine H3 receptor [1] amounted to 0.0113 µM. For the same compound, the Kd in assay [3] turned out to be 51.6 µM.
With `O=C1CN(C(=O)c2ccc(OCCCN3CCCCC3)cc2)CCN1Cc1ccccc1`, the Ki at Histamine H3 receptor [1] came out at 0.0049 µM.
Consider `O=c1[nH]/c(=C\c2ccc(OCCCN3CCCCC3)cc2)c(=O)[nH]/c1=C\c1ccccc1`, for which the Ki on Histamine H3 receptor [1] is 0.0038 µM. Moreover, the result in assay [2] was inactive.

The values above are taken from ChEMBL document CHEMBL5055663, “Histamine H3 receptor antagonists with peptidomimetic (keto)piperazine structures to inhibit Aβ oligomerisation” (Bioorg Med Chem, 2021).
